Reference: patent US20080038728A1, “Quadruple Transformed Cell Line Useful for the Identification of Transport Inhibitors” (priority 2004, published 2008)

What was measured:
[1] = test system: OATP1B1, OATP1B3, and OATP2B1; experiment: Uptake (intracellular accumulation) kinetics in ABCC2/OATP1B1/1B3/2B1 quadruple-transfected MDCKII cells; format: in vitro ADME, human; settings: human, pH 7.3, cell line ABCC2-OATP1B1/1B3/2B1 (quadruple-transfectant); intracellular accumulation of 3H-labeled substrate; read-out: Km
Method: (§1) (a) MDCKII cells were grown on ThinCerts (24-mm diameter, pore size 0.4 μm, pore density 1×10^8 per cm^2) and induced with butyrate as mentioned above. The cells were washed in prewarmed (37° C.) transport buffer (142 mM NaCl, 5 mM KCl, 1 mM KH2PO4, 1.2 mM MgSO4, 1.5 mM CaCl2, 5 mM glucose, and 12.5 mM HEPES, pH 7.3). The ^3H-labeled substrate was dissolved in transport buffer and added either to the apical or to the basolateral compartment at the concentration indicated. After incubation at 37° C., the radioactivity in the opposite compartment was measured by sampling aliquots from the apical or basolateral compartment. Cells were washed 2 times with ice-cold transport buffer containing 0.5% bovine serum albumin and 3 times in ice-cold transport buffer. Intracellular accumulation of radioactivity was calculated by lyzing the cells with 0.2% sodium dodecyl sulfate (SDS) and measuring the radioactivity in the lysate.

OATP1B3 = biological target: T1, OATP1B3 (Homo sapiens, UniProt Q9NPD5); experiment: Uptake (intracellular accumulation) kinetics in ABCC2/OATP1B3 double-transfected MDCKII cells; format: in vitro ADME; design: expressed in transfected cells; host or cells: MDCKII (canine kidney), co-expressing ABCC2; settings: cell line ABCC2-OATP1B3, intracellular accumulation of 3H-labeled substrate
T1 sequence (Q9NPD5 1-702): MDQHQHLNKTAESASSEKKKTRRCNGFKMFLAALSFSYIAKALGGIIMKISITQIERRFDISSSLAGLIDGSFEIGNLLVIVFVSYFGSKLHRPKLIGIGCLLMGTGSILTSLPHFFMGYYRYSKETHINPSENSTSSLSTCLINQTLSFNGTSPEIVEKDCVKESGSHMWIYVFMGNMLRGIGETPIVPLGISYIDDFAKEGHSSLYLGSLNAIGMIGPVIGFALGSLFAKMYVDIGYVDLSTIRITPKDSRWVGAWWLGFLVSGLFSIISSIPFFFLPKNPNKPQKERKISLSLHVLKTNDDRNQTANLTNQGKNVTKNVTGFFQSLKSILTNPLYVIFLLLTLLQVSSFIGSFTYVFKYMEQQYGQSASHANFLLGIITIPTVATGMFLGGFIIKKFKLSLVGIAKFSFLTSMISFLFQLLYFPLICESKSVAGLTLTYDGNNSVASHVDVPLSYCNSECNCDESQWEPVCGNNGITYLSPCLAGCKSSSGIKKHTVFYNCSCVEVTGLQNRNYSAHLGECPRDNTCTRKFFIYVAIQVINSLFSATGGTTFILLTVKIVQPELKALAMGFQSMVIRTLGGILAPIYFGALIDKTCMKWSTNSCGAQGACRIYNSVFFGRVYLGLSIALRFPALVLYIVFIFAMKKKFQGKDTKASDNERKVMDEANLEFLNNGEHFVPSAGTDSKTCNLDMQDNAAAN
Method: as §1

OATP2B1 = biological target: T2, OATP2B1 (Homo sapiens, UniProt O94956); experiment: Uptake (intracellular accumulation) kinetics in ABCC2/OATP2B1 double-transfected MDCKII cells; format: in vitro ADME; design: expressed in transfected cells; host or cells: MDCKII (canine kidney) ABCC2 single-transfectant, further transfected with pcDNA3.1/Hygro(-)-OATP2B1; settings: human, MDCKII cells double-transfected with ABCC2 and OATP2B1, pH 7.3; cell line ABCC2-OATP2B1; intracellular accumulation of 3H-labeled substrate; 5-min uptake
T2 sequence (O94956 1-709): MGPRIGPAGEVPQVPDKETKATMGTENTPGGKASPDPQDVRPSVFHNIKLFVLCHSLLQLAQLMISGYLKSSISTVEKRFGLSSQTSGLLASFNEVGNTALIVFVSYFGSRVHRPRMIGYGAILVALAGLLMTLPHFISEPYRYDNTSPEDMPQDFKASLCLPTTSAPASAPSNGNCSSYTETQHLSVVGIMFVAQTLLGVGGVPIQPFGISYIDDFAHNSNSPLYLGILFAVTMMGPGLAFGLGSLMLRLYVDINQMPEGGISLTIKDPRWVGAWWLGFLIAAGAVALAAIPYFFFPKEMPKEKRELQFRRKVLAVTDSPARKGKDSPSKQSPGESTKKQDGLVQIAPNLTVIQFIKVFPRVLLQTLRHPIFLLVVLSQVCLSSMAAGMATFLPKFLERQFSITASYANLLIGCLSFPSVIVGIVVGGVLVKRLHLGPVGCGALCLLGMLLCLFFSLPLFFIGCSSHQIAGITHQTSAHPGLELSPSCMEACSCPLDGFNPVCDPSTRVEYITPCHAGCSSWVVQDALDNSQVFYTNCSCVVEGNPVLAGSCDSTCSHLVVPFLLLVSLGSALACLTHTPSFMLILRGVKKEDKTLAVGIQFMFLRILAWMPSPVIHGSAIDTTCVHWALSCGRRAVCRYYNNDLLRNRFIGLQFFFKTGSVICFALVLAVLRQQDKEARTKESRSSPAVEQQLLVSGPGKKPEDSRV
Method: as §1, with “The cells were washed in prewarmed (37° C.) transport buffer (142 mM NaCl, 5 mM KCl, 1 mM KH2PO4, 1.2 mM MgSO4, 1.5 mM CaCl2, 5 mM glucose, and 12.5 mM HEPES, pH 7.3).” left out

ABCC2 [2] = biological target: T3, ABCC2 (Homo sapiens, UniProt Q92887); settings: MDCK
Method: ATP-dependent transport into inside-out membrane vesicles prepared from MDCKII-ABCC2 single-transfectants (ABCC2, closed circles) or vector-transfected MDCKII cells (Control, open circles) was measured for 1, 3, and 5 min as described in Example 1. Data are means ±SD determined from 3 measurements.
Transport of estrone 3-sulfate into inside-out membrane vesicles was performed using nick spin columns as described (Keppler et al., 1998). Membrane vesicles were prepared from MDCKII vector-transfected control cells and MDCKII-ABCC2 single transfected cells described by Cui et al. (1999) and Letschert et al. (2005). ATP-dependent transport was determined by subtracting values obtained in the presence of 5′-AMP from those in the presence of ATP.

[3] = test system: ABCC2 together with OATP1B1, OATP1B3, and OATP2B1; experiment: Transport studies (transcellular transport, intracellular accumulation) in all double- and quadruple-transfected MDCKII cells; format: in vitro ADME, human; settings: all 3 double-transfected and quadruple-transfected MDCKII cells, 5 μM BSP 15 min, 1 μM E3S, 0.5 μM Fluva in basolateral compartment
Method: as §1
(b) Transport assays were further carried out as described in Cui et al., Mol. Pharmacol. 60 (2001), 934-43. The apical localization of MRP2 and the basolateral expression of OATP1B1, OATP1B3 and OATP2B1 in the quadruple transfectants was shown by the generation of polar proliferation of the cells after initial growing on Transwell membrane inserts (24 mm diameter, […] pore size, Corning Costar) and by use of confocal laser scanning microscopy. […]

ABCC2 [4] = biological target: T3, ABCC2; design: expressed in transfected cells; host or cells: MDCKII-ABCC2 single-transfected cells (membrane vesicles); settings: BSP: Cui et al., 2001; CCK-8: Letschert et al., 2005; cited from earlier work
MDCKII cell clones = experiment: Transcellular leakage of [3H]inulin across MDCKII cell monolayers; format: in vitro ADME, canine; settings: 1 μM [3H]inulin in basolateral compartment, apical radioactivity after 30 min; all MDCKII cell clones
Method: The transcellular leakage was determined by addition of 1 μM [^3H]inulin to the basolateral compartment and measurement of the radioactivity appearing in the apical compartment after an incubation period of 30 min. The transcellular leakage was 1-2% of the radioactivity added for all MDCKII cell clones examined in this study.

[5] = substrate: CC(C)n1c(/C=C/C(O)CC(O)CC(=O)O)c(-c2ccc(F)cc2)c2ccccc21; experiment: cells, lysate or membranes named; settings: intracellular accumulation of 3H-labeled substrate, 5-min uptake, pH 7.3, 37.0 °C
[6] = substrate: O=C1OC(c2ccc(O)c(S(=O)(=O)O)c2)(c2ccc(O)c(S(=O)(=O)O)c2)c2c(Br)c(Br)c(Br)c(Br)c21; experiment: Uptake (intracellular accumulation) kinetics in ABCC2/OATP1B1 double-transfected MDCKII cells; format: in vitro ADME, human; settings: other: cell line ABCC2-OATP1B1; intracellular accumulation of 3H-labeled substrate; 5-min uptake; pH 7.3; 37.0 °C
Method: (§2) (a) MDCKII cells were grown on ThinCerts (24-mm diameter, pore size 0.4 μm, pore density 1×10^8 per cm^2) and induced with butyrate as mentioned above. […] The ^3H-labeled substrate was dissolved in transport buffer and added either to the apical or to the basolateral compartment at the concentration indicated. After incubation at 37° C., the radioactivity in the opposite compartment was measured by sampling aliquots from the apical or basolateral compartment. Cells were washed 2 times with ice-cold transport buffer containing 0.5% bovine serum albumin and 3 times in ice-cold transport buffer. Intracellular accumulation of radioactivity was calculated by lyzing the cells with 0.2% sodium dodecyl sulfate (SDS) and measuring the radioactivity in the lysate.

[7] = substrate: O=C1OC(c2ccc(O)c(S(=O)(=O)O)c2)(c2ccc(O)c(S(=O)(=O)O)c2)c2c(Br)c(Br)c(Br)c(Br)c21; experiment: Uptake (intracellular accumulation) kinetics in ABCC2/OATP2B1 double-transfected MDCKII cells; format: in vitro ADME, human; settings: other: cell line ABCC2-OATP2B1; intracellular accumulation of 3H-labeled substrate; 5-min uptake; pH 7.3; 37.0 °C
Method: as §2

T3 sequence (Q92887 whole entry): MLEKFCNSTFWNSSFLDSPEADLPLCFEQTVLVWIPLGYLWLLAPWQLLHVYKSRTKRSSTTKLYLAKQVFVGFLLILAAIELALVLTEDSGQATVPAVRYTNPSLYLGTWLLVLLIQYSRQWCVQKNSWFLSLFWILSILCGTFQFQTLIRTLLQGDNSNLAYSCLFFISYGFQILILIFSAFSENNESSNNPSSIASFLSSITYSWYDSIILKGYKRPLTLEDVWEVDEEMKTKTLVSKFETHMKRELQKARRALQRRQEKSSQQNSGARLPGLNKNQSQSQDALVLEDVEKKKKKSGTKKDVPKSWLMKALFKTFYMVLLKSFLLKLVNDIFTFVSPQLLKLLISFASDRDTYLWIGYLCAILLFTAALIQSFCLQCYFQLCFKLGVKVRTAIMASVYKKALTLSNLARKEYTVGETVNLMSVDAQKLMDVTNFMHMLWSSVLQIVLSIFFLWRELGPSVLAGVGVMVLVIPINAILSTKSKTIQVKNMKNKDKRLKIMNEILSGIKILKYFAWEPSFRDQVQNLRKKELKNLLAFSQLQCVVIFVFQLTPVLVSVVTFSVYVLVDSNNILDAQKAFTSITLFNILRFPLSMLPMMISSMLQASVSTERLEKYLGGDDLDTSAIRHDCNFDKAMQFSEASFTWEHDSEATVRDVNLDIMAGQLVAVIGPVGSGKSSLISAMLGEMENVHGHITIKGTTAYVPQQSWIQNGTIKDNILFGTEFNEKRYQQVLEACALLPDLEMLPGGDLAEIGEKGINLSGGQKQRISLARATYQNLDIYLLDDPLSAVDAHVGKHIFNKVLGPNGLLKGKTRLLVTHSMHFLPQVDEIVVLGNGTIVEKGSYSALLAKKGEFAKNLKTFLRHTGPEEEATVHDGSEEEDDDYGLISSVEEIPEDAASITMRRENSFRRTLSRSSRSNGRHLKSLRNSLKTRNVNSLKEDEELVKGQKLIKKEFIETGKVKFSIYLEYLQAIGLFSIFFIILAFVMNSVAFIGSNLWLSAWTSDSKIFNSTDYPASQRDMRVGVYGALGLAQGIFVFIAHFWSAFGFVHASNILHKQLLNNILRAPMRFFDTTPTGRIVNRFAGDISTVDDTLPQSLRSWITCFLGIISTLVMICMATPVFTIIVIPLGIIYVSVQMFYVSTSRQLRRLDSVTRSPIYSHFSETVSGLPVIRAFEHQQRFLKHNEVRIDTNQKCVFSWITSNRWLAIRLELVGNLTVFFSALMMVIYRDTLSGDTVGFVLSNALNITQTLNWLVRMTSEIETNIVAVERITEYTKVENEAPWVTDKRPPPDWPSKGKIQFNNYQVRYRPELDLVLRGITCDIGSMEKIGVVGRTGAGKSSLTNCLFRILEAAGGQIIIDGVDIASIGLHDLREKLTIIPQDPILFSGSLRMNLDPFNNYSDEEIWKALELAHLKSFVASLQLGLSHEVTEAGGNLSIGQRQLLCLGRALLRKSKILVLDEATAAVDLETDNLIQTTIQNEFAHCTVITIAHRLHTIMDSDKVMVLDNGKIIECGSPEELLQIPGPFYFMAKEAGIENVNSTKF

In the case of CC(C)n1c(/C=C/C(O)CC(O)CC(=O)O)c(-c2ccc(F)cc2)c2ccccc21 (centres unmarked) [Fluvastatin, fluvastatin], the Km [1] is reported as 2.3 µM, the Vmax (OATP1B3) is reported as 53.6 ± 11.0 pmol · mg protein^−1 · min^−1 and the Km at 5 min (OATP1B3; human, MDCKII cells double-transfected with ABCC2 and OATP1B3, pH 7.3, 5-min uptake, read-out: Km) is reported as 7 ± 2.5 µM. For the same molecule, the Km at 5 min (OATP2B1) was 0.7 µM and the “substrate for ABCC2” value (ABCC2 [2]; human) was “not a substrate for ABCC2”.

For C[C@]12CC[C@@H]3c4ccc(OS(=O)(=O)O)cc4CC[C@H]3[C@@H]1CCC2=O [estrone 3-sulfate], the “transcellular (vectorial) transport, basolateral to apical” value [3] was “transported transcellularly”, the “transcellular (vectorial) transport, basolateral to apical” value ([3]; listed as [^3H]estrone 3-sulfate) was “detected” and the “ABCC2-mediated transport in the presence of ATP, enhanced compared to controls” value (ABCC2 [2]) was 3.1 fold.

For cholecystokinin-8 sulfate [CCK-8], the Km (ABCC2 [4]) is listed as 8.1 µM.

In the case of inulin [[^3H]inulin], the transcellular leakage (MDCKII cell clones) is reported as 1-2 % of the radioactivity added.

B1: OATP1B1 (Homo sapiens) (protein)
chain: MDQNQHLNKTAEAQPSENKKTRYCNGLKMFLAALSLSFIAKTLGAIIMKSSIIHIERRFEISSSLVGFIDGSFEIGNLLVIVFVSYFGSKLHRPKLIGIGCFIMGIGGVLTALPHFFMGYYRYSKETNINSSENSTSTLSTCLINQILSLNRASPEIVGKGCLKESGSYMWIYVFMGNMLRGIGETPIVPLGLSYIDDFAKEGHSSLYLGILNAIAMIGPIIGFTLGSLFSKMYVDIGYVDLSTIRITPTDSRWVGAWWLNFLVSGLFSIISSIPFFFLPQTPNKPQKERKASLSLHVLETNDEKDQTANLTNQGKNITKNVTGFFQSFKSILTNPLYVMFVLLTLLQVSSYIGAFTYVFKYVEQQYGQPSSKANILLGVITIPIFASGMFLGGYIIKKFKLNTVGIAKFSCFTAVMSLSFYLLYFFILCENKSVAGLTMTYDGNNPVTSHRDVPLSYCNSDCNCDESQWEPVCGNNGITYISPCLAGCKSSSGNKKPIVFYNCSCLEVTGLQNRNYSAHLGECPRDDACTRKFYFFVAIQVLNLFFSALGGTSHVMLIVKIVQPELKSLALGFHSMVIRALGGILAPIYFGALIDTTCIKWSTNNCGTRGSCRTYNSTSFSRVYLGLSSMLRVSSLVLYIILIYAMKKKYQEKDINASENGSVMDEANLESLNKNKHFVPSAGADSETHC
notes: expressed in transfected cells; host or cells: MDCKII (canine kidney), co-expressing ABCC2
In the case of B1, the Km ([5]; other: cell line ABCC2-OATP1B1) is reported as 2.4 ± 0.9 µM, the Vmax ([5]; other: cell line ABCC2-OATP1B1) is reported as 43.4 ± 6.7 pmol · mg protein^−1 · min^−1 and the Km [6] is reported as 2.4 µM. For the same molecule, the Vmax [6] was 41.5 ± 5.2 pmol · mg protein^−1 · min^−1.

B2: OATP2B1 (Homo sapiens) (protein)
chain: T2 sequence (O94956 1-709)
notes: expressed in transfected cells; host or cells: MDCKII (canine kidney) ABCC2 single-transfectant, further transfected with pcDNA3.1/Hygro(-)-OATP2B1
With B2 the Km ([5]; other: cell line ABCC2-OATP2B1) was 0.7 ± 0.3 µM, the Vmax ([5]; other: cell line ABCC2-OATP2B1) was 23.0 ± 2.6 pmol · mg protein^−1 · min^−1 and the Km [7] was 3.4 µM.
